Measured values from ChEMBL document CHEMBL2057075, “Guanacastane-type diterpenoids with cytotoxic activity from Coprinus plicatilis” (Bioorg Med Chem Lett, 2012).
Activity calls are given as the source filed them. No cut-off for these calls is given here.

Experiments:
U2OS = test: Cytotoxicity against human U2OS cells after 72 hrs by MTT assay; type: functional, cell-based
BGC-823 = test: Cytotoxicity against human BGC823 cells after 72 hrs by MTT assay; type: functional, cell-based; settings: BGC-823, 72 h
HepG2 [1] = test: Growth inhibition of human HepG2 cells at 20 uM after 72 hrs by MTT assay; type: functional, cell-based
HepG2 [2] = test: cells; settings: Homo sapiens, HepG2, 72 h
Description: Cytotoxicity against human HepG2 cells after 72 hrs by MTT assay

HeLa = test: cells; settings: Homo sapiens, 72 h
Description: Cytotoxicity against human HeLa cells after 72 hrs by MTT assay

HCT-116 = test: cells; settings: Homo sapiens, HCT-116, 72 h
MDA-MB-231 = test: cells; settings: Homo sapiens, MDA-MB-231, 72 h
Description: Cytotoxicity against human MDA-MB-231 cells after 72 hrs by MTT assay

| SMILES | IC50 (HepG2 [2]) | IC50 (HeLa) | IC50 (HCT-116) | IC50 (MDA-MB-231) | IC50 (U2OS) | IC50 (BGC-823) | growth inhibition (GI) (HepG2 [1]) |
| --- | --- | --- | --- | --- | --- | --- | --- |
| COc1cccc2c1C(=O)c1c(O)c3c(c(O)c1C2=O)C[C@@](O)(C(=O)CO)C[C@@H]3O[C@H]1C[C@H](N)[C@H](O)[C@H](C)O1 [DOXORUBICIN] | 0.7 µM | 0.6 µM | 0.3 µM | – | 3.4 µM | 0.9 µM | – |
| CC(=O)O[C@H]1C(=O)[C@@H]2[C@H]3OCC4=C3[C@@](C)(CC[C@@H]4O)CC[C@]2(C)[C@H]1C(C)C | – | – | – | – | – | – | inactive |
| CC(C)[C@H]1[C@@H](O)[C@H](O)C2=CC3=C(CO)CCC[C@@]3(C)CC[C@@]21C (relative stereo) | – | – | – | – | – | – | inactive |

The next lines start with results.

| IC50 (HepG2 [2]) | IC50 (HeLa) | IC50 (HCT-116) | IC50 (MDA-MB-231) | SMILES | IC50 (U2OS) | IC50 (BGC-823) | growth inhibition (GI) (HepG2 [1]) |
| --- | --- | --- | --- | --- | --- | --- | --- |
| 25.9 µM | > 50 µM | 38.9 µM | > 50 µM | CC(C)[C@H]1C(=O)CC2=C(O)C3=C(CO)[C@@H](O)CC[C@@]3(C)CC[C@@]21C (relative stereo) | > 50 µM | > 50 µM | Active |
| 2.3 µM | 5 µM | 1.2 µM | 6 µM | CC(C)[C@H]1[C@@H](O)[C@@H](O)C2=C3OC(=O)C4=C3[C@@](C)(CC[C@@H]4O)CC[C@@]21C (relative stereo) | 19.3 µM | 2.4 µM | Active |
| 16.9 µM | > 50 µM | 19.8 µM | 34.8 µM | CC(C)[C@H]1[C@@H](O)C(=O)[C@@]2(O)[C@H]3OCC4=C3[C@@](C)(CC[C@@H]4O)CC[C@]12C (relative stereo) | 39.7 µM | 35.6 µM | Active |
